Patent US11051538B2, “Plated flavor powders” (FIRMENICH SA, priority 2013, dated 2021)

Test: Transfer of volatiles via headspace from MCT flavor composition to PG plated onto MCC, cyclohexane extraction, GC/MS
Assay type: physicochemical
Details: for (conc in PG/conc in initial oil)*100: affinity for propylene glycol versus MCT oil or air; for (conc in PG/conc in initial oil)*100 / Avg conc in the PG: 6 days room temperature; for Avg conc in the PG / Avg conc in powder: powder 20% PG on 80% MCC; for Avg conc in powder: 6 days room temperature in closed container with MCT flavor composition, average of 2 extractions
Experimental: A flavor composition formulated based on a medium chain triglyceride oil (MCT, solvent A) was filled into a open beaker, and was then placed inside a closed glass container containing a powder consisting of 20% propylene glycol (PG, solvent B) plated onto 80% of microcrystalline cellulose (MCC; purchased from Sigma Aldrich). Then the system was stored in the lab at room temperature. After 6 days, a small sample of powder was removed, an extraction experiment was performed and the extract was analyzed by GC/MS. Extraction solvent: cyclohexane Internal standard: Methyloctanoate (a 6.67 mg/ml solution was prepared by dissolution in cyclohexane) 2 extractions were performed to check the reproducibility.

Row | Molecule | (conc in PG/conc in initial oil)*100 | Avg conc in the PG [ppm] | Avg conc in powder [ppm]
1 | CCc1ncc(C)nc1C [2-ethyl-3,5-dimethylpirazine] | 12.7 | 25.4 | 6
2 | CCc1nccnc1C [2-ethyl-3-methylpyrazine] | 39.9 | 799.0 | 200
3 | CCC(C)C=O (stereo not drawn) [2-methyl butanal] | 6.7 | 1615.4 | 404
4 | CSCCC=O [3-(methylthio)propanal] | 2.8 | 113.5 | 28
5 | CC(=O)C(C)O (stereo not drawn) [acetylmethylcarbinol] | 3.9 | 156.9 | 39
6 | CC(C)CC=O [isovalerianic aldehyde] | 9.1 | 1091.5 | 273
7 | Decenal | 0.3 | 37.8 | 9
8 | Dienal C10 | 1.9 | 467.4 | 117
9 | Dienal C11 | 0.5 | 40.4 | 10
